{
  "source": "patent US11717635B2",
  "about": "“Argon combined with thrombectomy in the event of ischaemic stroke” (L'Air Liquide, Société Anonyme pour l'Etude et …, priority 2019, dated 2023)",
  "tested_on": "transient focal cerebral ischaemia (occlusion of the middle cerebral artery)",
  "experiment": "Transient focal cerebral ischaemia (microcoil occlusion of the right MCA, 90 min, then reperfusion mimicking mechanical thrombectomy) with MRI and behavioural follow-up",
  "assay_type": "in vivo, rhesus macaques",
  "description": "The primates used in the study are rhesus macaques, in which it has been possible to obtain a stable and reproducible model of reversible ischaemia mimicking an ischaemic stroke and its reperfusion by mechanical thrombectomy, as explained below. After approval of the project by the ethics committee for animal experimentation, 6 rhesus macaques were randomized in 2 groups of 3 animals per group, namely: • a group treated with argon or “argon group” inhaling, for 90 min in total, a binary gas mixture formed of 60% argon and 40% oxygen (vol. %), the inhalation of the gas beginning 30 min after the start of the ischaemia and extending during and after the thrombectomy procedure (with or without thrombolysis); • a “control group” inhaling a gas mixture formed of 60% nitrogen and 40% oxygen (vol. %). These groups are subjected to a model of transient focal cerebral ischaemia without craniectomy consisting of an occlusion under anaesthesia of the middle cerebral artery (MCA) by deploying a rigid microspring, called a “microcoil”, until the arterial blood flow stops, in the M2 segment of the right MCA. After 90 min of ischaemia, which is the usual average time between the first signs of an ischaemic stroke and the cerebral reperfusion, the “microcoil” was removed and the revascularization confirmed by arteriography. This procedure mimics a blood clot and its removal by mechanical thrombectomy. All the animals are monitored by high-resolution MRI (Prisma 3 Tesla, Siemens) several days before and directly after the ischaemia (3[…], TOF) in order to quantify the cerebral volume made ischaemic (i.e. restriction of the apparent diffusion coefficient) and the cerebral oedema ([…]). Moreover, the functional recovery was monitored in the acute phase in 1 control animal and over the long-term in two animals of the argon group, that is to say over the course of 3 months post-ischaemia. The evaluations were carried out in terms of the clinical and functional neurological recovery with behavioural tests evaluating their fine sensory-motor performances.",
  "data": [
    {"smiles": "[Ar]", "note": "[argon]", "values": [
      {"measurement": "lesion volume", "setting": "argon group (60% argon/40% oxygen, 90 min), control group about 5 ml", "result": "about 1 ml"},
      {"measurement": "performances in the behavioural tests (fine sensory-motor) post-ischaemia compared with baseline", "setting": "argon group animals monitored 3 months post-ischaemia", "result": "not significantly impaired"},
      {"measurement": "blood-brain barrier state on MRI images", "setting": "argon group, rupture observed in the control group", "result": "preserved"},
      {"measurement": "decrease in the volume of cerebral oedema compared to the control group", "setting": "inhaled 60% argon/40% oxygen for 90 min, begun 30 min after start of ischaemia, MRI T2-FLAIR, P<0.05 vs control", "result": 85, "unit": "% reduction"},
      {"measurement": "decrease in the cerebral volume infarcted compared to the control group", "setting": "inhaled 60% argon/40% oxygen for 90 min, begun 30 min after start of ischaemia, MRI, P<0.05 vs 60% nitrogen/40% oxygen control", "result": 83, "unit": "% reduction"},
      {"measurement": "clinical and functional neurological recovery", "setting": "two animals of the argon group monitored 3 months post-ischaemia, deficit = left leg paresis", "result": "rapid recovery with only a minor and transient neurological deficit"}
    ]}
  ]
}
